Patent publication US8507656B2, “Stabilized angiopoietin-2 antibodies and uses thereof” (MedImmune Limited, priority 2008, dated 2013)

What was measured:
Type in all cases: in vivo
Colo205 xenograft tumors = experiment: Colo205 xenograft model of colorectal cancer; details: 3.19.3 10 mg/kg 2×wk i.p., Gemcitabine 50 mg/kg q3dx2 i.v., combination of both
Protocol: The anti-tumor activity of 3.19.3 was evaluated in combination with Gemcitabine in the Colo205 xenograft model of colorectal cancer. Colo205 cells were cultured in flasks as routine until the cells reached sub-confluence. Cell suspensions containing approximately 3×10E6 cells were injected subcutaneously into the flank of female Swiss nude mice. When the tumor volume reached 200 mm^3, the mice were randomized in treatment groups of 8-10 mice and the treatments were initiated. 3.19.3 (10 mg/kg) in saline was injected intraperitoneally, twice per week for 2 weeks. Gemcitabine (50 mg/kg) was administered by intravenous administration following a q3d schedule. The dimensions of each tumor and body weights were measured at least twice per week. The volume of the tumor was calculated as: Volume=Length×(Width)×0.5 (cm^3). […] The % tumor growth inhibition achieved is as follows: […]

[1] = system: MDA-MB-231 xenograft tumors; experiment: MDA-MB-231 orthotopic breast cancer xenograft model; details: 3.19.3 10 mg/kg 2×wk i.p., AZD6495 30 mg/kg bid p.o. 18 d, combination of both
Protocol: The anti-tumor activity of the anti-Angiopoietin-2 monoclonal antibody 3.19.3 in combination with the small molecule CSF1R tyrosine kinase inhibitor AZD6495 was evaluated in a xenograft model of human breast carcinoma using the MDA-MB-231 cell line (FIG. 5a).
Breast adenocarcinoma MDA-MB-231 cells were cultured in flasks as routine until the cells reach sub-confluence. Immunodeficient 7-10 week old female nude mice were orthotopically implanted with 8×10^6 MDA-MB-231 cells suspended 1:1 in Matrigel into the mammary fat pad. The mice were then randomized into cohorts containing 10 mice once the tumors reached approximately 100 mm^3. The mice were treated by intraperitoneally (IP) injection with mAb 3.19.3 (10 mg/kg) twice per week for 3 weeks thereafter, or by oral administration of AZD6495 (30 mg/kg) following bid dosing for 18 days. […] The body weights of each animal, and the dimensions of each tumor were measured twice per week. The volume of the tumor was calculated as: Volume=Length×(Width)^2×0.5 cm^3, or by bilateral Vernier caliper measurement and, taking length to be the longest diameter across the tumor and width the corresponding perpendicular, calculated using the formula (π/6)×(length×width)×√(length×width). Growth inhibition from the start of treatment was assessed by comparison of the differences in tumor volume between control and treated groups.

Calu6 xenograft tumors = details: 3.19.3 10 mg/kg 2×wk i.p., Docetaxel 15 mg/kg/week i.v., combination of both
Protocol: The anti-tumor activity of 3.19.3 was evaluated in combination with Docetaxel in the Calu6 xenograft model of lung cancer. Calu6 cells were cultured in flasks as routine until the cells reached sub-confluence. Cell suspensions containing approximately 3×10E6 cells were injected subcutaneously into the flank of female Swiss nude mice. When the tumor volume reached 200 mm^3, the mice were randomized in treatment groups of 8-10 mice and the treatments were initiated. 3.19.3 (10 mg/kg) in saline was injected intraperitoneally, twice per week for 2 weeks. Docetaxel (15 mg/kg) was administered by intravenous administration following a weekly schedule. The dimensions of each tumor and body weights were measured at least twice per week. The volume of the tumor was calculated as: Volume=Length×(Width)×0.5 (cm^3).

3.19.3: fully human anti-Ang-2 monoclonal antibody, wild type control; light chain SEQ ID No. 1, heavy chain SEQ ID No. 2 [Antibody 3.19.3]
% tumor growth inhibition (Colo205 xenograft tumors): 74% | % tumor growth inhibition [1]: 17% | % tumor growth inhibition (Calu6 xenograft tumors): 20%
